{"source": "patent US9206159B2", "about": "“Piperazine-piperidine compounds as hepatitis C virus inhibitors” (Theravance Biopharma R&D IP, LLC, priority 2012, dated 2015)", "data": [{"system": "HCV genotype 1a replicon cell line", "experiment": "HCV Genotype 1a Replicon Assay", "assay_type": "cell-based, hepatitis C virus", "details": "Huh7.5 cell background, NS3-specific protease activity in lysates, 48 or 72 hours", "description": "Assay 2: HCV Genotype 1a Replicon Assay\nThe HCV genotype 1a replicon cell line was obtained from Apath LLC (APC89; Huh7.5 cell background). This subgenomic replicon contains the N-terminus of the HCV core protein fused to the neomycin-resistance selectable marker. The EMCV IRES lies downstream and drives expression of the non-structural proteins NS3-NS5B. Compound potencies were determined using the NS3-specific protease activity in lysates as a measurement of compound inhibition of replicon levels.\nCells were grown at 37° C. in a 5% CO2 humidified incubator in DMEM (Invitrogen) with 10% FBS (HyClone), 1×NEAA (Invitrogen), 1× Pen-Strep (Invitrogen), and 850 μg/mL G418 (Invitrogen). On day 1 of the assay, cells were plated at 15,000 cells/well in black 96-well tissue culture plates (Costar) in 200 μL media lacking G418. Four hours later, once the cells had adhered, the media was removed and replaced with media (no G418) containing dose-responses of test compounds. Compounds were initially diluted in DMSO and then diluted another 200× in media to bring the final DMSO concentration down to 0.5%. The cells were incubated with test compounds for 48 or 72 hours. At the end of the incubation period, media and compound were removed from the plates.\nTo determine the NS3-specific protease activity in lysates, the cells were lysed at room temperature in 50 μL/well of 50 mM Hepes pH 7.5, 150 mM NaCl, 15% Glycerol, 0.15% Triton X-100, 10 mM DTT for 20 minutes with shaking. 50 μL of an NS3/4a protease-specific FRET substrate (Anaspec RET SI Cat#22991) was then added to the wells at a final concentration of 15 μM. The plates were incubated at 37° C. for 20 minutes, which corresponds to a timepoint at which the protease activity is still in the linear phase. Protease activity was determined by measuring fluorescence (Excitation: 340 nm; Emission: 509 nm).\nTo analyze the data, the fluorescence was plotted vs. the compound concentration, and EC50 values were determined from a 4-parameter robust fit model using GraphPad Prism software.", "values": [{"smiles": "COC(=O)N[C@H](C(=O)N1C[C@@H](C)C[C@H]1c1nc(-c2ccc(-c3ccc(NC(=O)N4CCN(C5CCN(C(=O)C6CC6)CC5)CC4)cc3OC(F)(F)F)cc2)c(Cl)[nH]1)C(C)C", "note": "[Example 2-26]", "Genotype 1a (pEC50 class)": "D (D represents pEC50>10 (EC50<0.1 nM))"}, {"smiles": "[2H]C([2H])([2H])C1(C([2H])([2H])[2H])CC1C(=O)N1CCC(N2CCN(C(=O)Nc3ccc(-c4ccc(-c5nc([C@@H]6C[C@H](C)CN6C(=O)[C@@H](NC(=O)OC)C(C)C)[nH]c5Cl)cc4)c(OC(F)(F)F)c3)CC2)CC1", "note": "(stereo partly drawn) [Example 2-27]", "Genotype 1a (pEC50 class)": "D (D represents pEC50>10 (EC50<0.1 nM))"}, {"smiles": "COC(=O)N[C@H](C(=O)N1C[C@@H](C)C[C@H]1c1nc(-c2ccc(-c3ccc(NC(=O)N4CCN(C5CCN(C(=O)OC(C)(C)C)CC5)CC4)cc3OC(F)(F)F)cc2)c(F)[nH]1)C(C)C", "note": "[Example 2-28]", "Genotype 1a (pEC50 class)": "D (D represents pEC50>10 (EC50<0.1 nM))"}, {"smiles": "COC(=O)N[C@H](C(=O)N1C[C@@H](C)C[C@H]1c1nc(-c2ccc(-c3ccc(NC(=O)N4CCN(C5CCN(C(=O)C(C)(C)CO)CC5)CC4)cc3OC(F)(F)F)cc2)c[nH]1)C(C)C", "note": "[Example 2-29]", "Genotype 1a (pEC50 class)": "C (C represents pEC50 between and 9 and about 10, (EC50 between 1 nM and 0.1 nM))"}, {"smiles": "COC(=O)N[C@H](C(=O)N1CCC[C@H]1c1nc(-c2ccc(-c3ccc(NC(=O)N4CCC(N5CCN(C(=O)OC(C)(C)C)CC5)CC4)cc3)cc2)c[nH]1)C(C)C", "note": "[Example 3-1]", "Genotype 1a (pEC50 class)": "A (A represents a pEC50 value between 6 and 8 (EC50 between 1 μM and 10 nM))"}, {"smiles": "COC(=O)N[C@H](C(=O)N1CCC[C@H]1c1nc(-c2ccc(-c3ccc(NC(=O)N4CCC(N5CCN(C(=O)C6CC6)CC5)CC4)cc3)cc2)c[nH]1)C(C)C", "note": "[Example 3-3]", "Genotype 1a (pEC50 class)": "A (A represents a pEC50 value between 6 and 8 (EC50 between 1 μM and 10 nM))"}, {"smiles": "CNC(=O)N1CCN(C2CCN(C(=O)Nc3ccc(-c4ccc(-c5c[nH]c([C@@H]6CCCN6C(=O)[C@@H](NC(=O)OC)C(C)C)n5)cc4)cc3)CC2)CC1", "note": "[Example 3-5]", "Genotype 1a (pEC50 class)": "A (A represents a pEC50 value between 6 and 8 (EC50 between 1 μM and 10 nM))"}, {"smiles": "COC(=O)N[C@H](C(=O)N1CCC[C@H]1c1nc(-c2ccc(-c3ccc(NC(=O)N4CCC(N5CCN(C(=O)OC)CC5)CC4)cc3)cc2)c[nH]1)C(C)C", "note": "[Example 3-6]", "Genotype 1a (pEC50 class)": "A (A represents a pEC50 value between 6 and 8 (EC50 between 1 μM and 10 nM))"}, {"smiles": "COC(=O)N[C@H](C(=O)N1CCC[C@H]1c1nc(-c2ccc(-c3ccc(NC(=O)N4CCC(N5CCN(C(=O)OC(C)(C)C)[C@H](C)C5)CC4)cc3OC(F)(F)F)cc2)c[nH]1)C(C)C", "note": "[Example 3-7]", "Genotype 1a (pEC50 class)": "B (B represents pEC50 between 8 and 9 (EC50 between 1 and 10 nM))"}, {"smiles": "COC(=O)N[C@H](C(=O)N1CCC[C@H]1c1nc(-c2ccc(-c3ccc(NC(=O)N4CCC(N5CCN(C(=O)[C@H]6CC6(C)C)[C@H](C)C5)CC4)cc3OC(F)(F)F)cc2)c[nH]1)C(C)C", "note": "[Example 3-8]", "Genotype 1a (pEC50 class)": "B (B represents pEC50 between 8 and 9 (EC50 between 1 and 10 nM))"}, {"smiles": "COC(=O)N[C@H](C(=O)N1C[C@@H](C)C[C@H]1c1nc(-c2ccc(-c3cc(Cl)c(NC(=O)N4CCN(C5CCN(C(=O)[C@H]6CC6(C)C)CC5)CC4)cc3OC(F)(F)F)cc2)c[nH]1)C(C)C", "note": "[Example 3]", "Genotype 1a (pEC50 class)": "C (C represents pEC50 between and 9 and about 10, (EC50 between 1 nM and 0.1 nM))"}, {"smiles": "COC(=O)N[C@H](C(=O)N1C[C@@H](C)C[C@H]1c1nc(-c2ccc(-c3cc(Cl)c(NC(=O)N4CCC(N5CCN(C(=O)OC(C)(C)C)[C@@H](C)C5)CC4)cc3OC(F)(F)F)cc2)c[nH]1)C(C)C", "note": "[Example 4-1]", "Genotype 1a (pEC50 class)": "A (A represents a pEC50 value between 6 and 8 (EC50 between 1 μM and 10 nM))"}, {"smiles": "COC(=O)N[C@H](C(=O)N1C[C@@H](C)C[C@H]1c1nc(-c2ccc(-c3cc(Cl)c(NC(=O)N4CCC(N5CCN(C(=O)[C@H]6CC6(C)C)[C@@H](C)C5)CC4)cc3OC(F)(F)F)cc2)c[nH]1)C(C)C", "note": "[Example 4-2]", "Genotype 1a (pEC50 class)": "C (C represents pEC50 between and 9 and about 10, (EC50 between 1 nM and 0.1 nM))"}, {"smiles": "COC(=O)N[C@H](C(=O)N1C[C@@H](C)C[C@H]1c1nc(-c2ccc(-c3cc(Cl)c(NC(=O)N4CCC(N5CCN(C(=O)C(C)(C)C)[C@@H](C)C5)CC4)cc3OC(F)(F)F)cc2)c[nH]1)C(C)C", "note": "[Example 4-3]", "Genotype 1a (pEC50 class)": "B (B represents pEC50 between 8 and 9 (EC50 between 1 and 10 nM))"}, {"smiles": "CNC(=O)N1CCN(C2CCN(C(=O)Nc3cc(OC(F)(F)F)c(-c4ccc(-c5c[nH]c([C@@H]6C[C@H](C)CN6C(=O)[C@@H](NC(=O)OC)C(C)C)n5)cc4)cc3Cl)CC2)C[C@@H]1C", "note": "[Example 4-4]", "Genotype 1a (pEC50 class)": "B (B represents pEC50 between 8 and 9 (EC50 between 1 and 10 nM))"}, {"smiles": "COC(=O)N[C@H](C(=O)N1C[C@@H](C)C[C@H]1c1nc(-c2ccc(-c3cc(Cl)c(NC(=O)N4CCC(N5CCN(C(=O)C6CC6)[C@@H](C)C5)CC4)cc3OC(F)(F)F)cc2)c[nH]1)C(C)C", "note": "[Example 4-5]", "Genotype 1a (pEC50 class)": "B (B represents pEC50 between 8 and 9 (EC50 between 1 and 10 nM))"}, {"smiles": "COC(=O)N[C@H](C(=O)N1C[C@@H](C)C[C@H]1c1nc(-c2ccc(-c3cc(F)c(NC(=O)N4CCC(N5CCN(C(=O)OC(C)(C)C)CC5)CC4)cc3OC(F)(F)F)cc2)c[nH]1)C(C)C", "note": "[Example 4-6]", "Genotype 1a (pEC50 class)": "B (B represents pEC50 between 8 and 9 (EC50 between 1 and 10 nM))"}, {"smiles": "COC(=O)N[C@H](C(=O)N1C[C@@H](C)C[C@H]1c1nc(-c2ccc(-c3cc(F)c(NC(=O)N4CCC(N5CCN(C(=O)C(C)(C)C)CC5)CC4)cc3OC(F)(F)F)cc2)c[nH]1)C(C)C", "note": "[Example 4-7]", "Genotype 1a (pEC50 class)": "C (C represents pEC50 between and 9 and about 10, (EC50 between 1 nM and 0.1 nM))"}, {"smiles": "COC(=O)N[C@H](C(=O)N1C[C@@H](C)C[C@H]1c1nc(-c2ccc(-c3cc(F)c(NC(=O)N4CCC(N5CCN(C(=O)[C@H]6CC6(C)C)CC5)CC4)cc3OC(F)(F)F)cc2)c[nH]1)C(C)C", "note": "[Example 4-8]", "Genotype 1a (pEC50 class)": "C (C represents pEC50 between and 9 and about 10, (EC50 between 1 nM and 0.1 nM))"}, {"smiles": "COC(=O)N[C@H](C(=O)N1C[C@@H](C)C[C@H]1c1nc(-c2ccc(-c3cc(F)c(NC(=O)N4CCC(N5CCN(C(=O)C6CC6)CC5)CC4)cc3OC(F)(F)F)cc2)c[nH]1)C(C)C", "note": "[Example 4-9]", "Genotype 1a (pEC50 class)": "C (C represents pEC50 between and 9 and about 10, (EC50 between 1 nM and 0.1 nM))"}, {"smiles": "COC(=O)N[C@H](C(=O)N1C[C@@H](C)C[C@H]1c1nc(-c2ccc(-c3ccc(NC(=O)N4CCC(N5CCN(C(=O)C(C)(C)C)CC5)CC4)cc3OC(F)(F)F)cc2)c[nH]1)C(C)C", "note": "[Example 4-10]", "Genotype 1a (pEC50 class)": "C (C represents pEC50 between and 9 and about 10, (EC50 between 1 nM and 0.1 nM))"}, {"smiles": "COC(=O)N[C@H](C(=O)N1C[C@@H](C)C[C@H]1c1nc(-c2ccc(-c3ccc(NC(=O)N4CCC(N5CCN(C(=O)[C@H]6CC6(C)C)CC5)CC4)cc3OC(F)(F)F)cc2)c[nH]1)C(C)C", "note": "[Example 4-11]", "Genotype 1a (pEC50 class)": "C (C represents pEC50 between and 9 and about 10, (EC50 between 1 nM and 0.1 nM))"}, {"smiles": "COC(=O)N[C@H](C(=O)N1C[C@@H](C)C[C@H]1c1nc(-c2ccc(-c3cc(Cl)c(NC(=O)N4CCC(N5CCN(C(=O)OC(C)(C)C)CC5)CC4)cc3OC(F)(F)F)cc2)c[nH]1)C(C)C", "note": "[Example 4-12]", "Genotype 1a (pEC50 class)": "B (B represents pEC50 between 8 and 9 (EC50 between 1 and 10 nM))"}, {"smiles": "COC(=O)N[C@H](C(=O)N1C[C@@H](C)C[C@H]1c1nc(-c2ccc(-c3cc(Cl)c(NC(=O)N4CCC(N5CCN(C(=O)C(C)(C)C)CC5)CC4)cc3OC(F)(F)F)cc2)c[nH]1)C(C)C", "note": "[Example 4-13]", "Genotype 1a (pEC50 class)": "B (B represents pEC50 between 8 and 9 (EC50 between 1 and 10 nM))"}, {"smiles": "COC(=O)N[C@H](C(=O)N1C[C@@H](C)C[C@H]1c1nc(-c2ccc(-c3cc(Cl)c(NC(=O)N4CCC(N5CCN(C(=O)[C@H]6CC6(C)C)CC5)CC4)cc3OC(F)(F)F)cc2)c[nH]1)C(C)C", "note": "[Example 4-14]", "Genotype 1a (pEC50 class)": "C (C represents pEC50 between and 9 and about 10, (EC50 between 1 nM and 0.1 nM))"}, {"smiles": "COC(=O)N[C@H](C(=O)N1C[C@@H](C)C[C@H]1c1nc(-c2ccc(-c3cc(Cl)c(NC(=O)N4CCC(N5CCN(C(=O)C6CC6)CC5)CC4)cc3OC(F)(F)F)cc2)c[nH]1)C(C)C", "note": "[Example 4-15]", "Genotype 1a (pEC50 class)": "B (B represents pEC50 between 8 and 9 (EC50 between 1 and 10 nM))"}, {"smiles": "COC(=O)N[C@H](C(=O)N1C[C@@H](C)C[C@H]1c1nc(-c2ccc(-c3cc(Cl)c(NC(=O)N4CCC(N5CCN(C(=O)C(C)(C)C)C[C@H]5C)CC4)cc3OC(F)(F)F)cc2)c[nH]1)C(C)C", "note": "[Example 4-16]", "Genotype 1a (pEC50 class)": "C (C represents pEC50 between and 9 and about 10, (EC50 between 1 nM and 0.1 nM))"}]}]}
